Source: patent US10703765B2 (priority 2014, dated 2020)
Where a name gives a salt, the structure may show the parent alone. Read-outs that look alike come from different tables or passages of the source.

Target: human σ1 receptor (Homo sapiens, UniProt Q99720)
Test: biochemical
Assay type: binding
Parameters: μ and σ1 dual binding: key to the marks not given beside the values
[1] = read-out: μ and σ1 dual binding
[2] = combined class from Ki-σ1 (human σ1 receptor, A1) and Ki-μ (human μ-opioid receptor, A2) radioligand binding

human σ1 receptor, sequence (Q99720 whole entry): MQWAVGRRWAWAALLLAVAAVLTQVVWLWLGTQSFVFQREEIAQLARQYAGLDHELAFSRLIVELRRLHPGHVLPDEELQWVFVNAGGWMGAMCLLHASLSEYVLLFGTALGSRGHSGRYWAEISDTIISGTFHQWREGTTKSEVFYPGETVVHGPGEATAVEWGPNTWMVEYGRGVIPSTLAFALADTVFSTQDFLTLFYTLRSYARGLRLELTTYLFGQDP

SMILES: O=C1COC2(CCN(CCc3ccccc3)CC2)CN1c1cccc(O)c1 [Example 288, 4-(3-hydroxyphenyl)-9-phenethyl-1-oxa-4,9-diazaspiro[5.5]undecan-3-one]
- Ki [1]: < 0.5 µM

SMILES: O=C1COC2(CCN(CCc3ccccc3O)CC2)CN1c1ccccc1 [Example 289, 9-(2-hydroxyphenethyl)-4-phenyl-1-oxa-4,9-diazaspiro[5.5]undecan-3-one]
- Ki [1]: < 0.5 µM

SMILES: O=C1COC2(CCN(CCc3ccc(O)cc3)CC2)CN1c1ccccc1 [Example 290, 9-(4-hydroxyphenethyl)-4-phenyl-1-oxa-4,9-diazaspiro[5.5]undecan-3-one]
- μ and σ1 dual binding: ++

SMILES: O=C1COC2(CCN(CCc3cccc(O)c3)CC2)CN1c1ccccc1 [Example 291, 9-(3-hydroxyphenethyl)-4-phenyl-1-oxa-4,9-diazaspiro[5.5]undecan-3-one]
- Ki [1]: < 0.5 µM

SMILES: Oc1ccc(CCN2CCC3(CC2)CN(c2ccccc2)CCO3)cc1 [Example 292, 4-(2-(4-phenyl-1-oxa-4,9-diazaspiro[5.5]undecan-9-yl)ethyl)phenol]
- μ and σ1 dual binding [2]: ++

SMILES: CC1OC2(CCN(CCc3ccccc3)CC2)CN(c2ccc(O)cc2)C1=O (stereo not shown) [Example 293, 4-(4-hydroxyphenyl)-2-methyl-9-phenethyl-1-oxa-4,9-diazaspiro[5.5]undecan-3-one]
- μ and σ1 dual binding: ++

SMILES: CC1OC2(CCN(CCc3ccccc3)CC2)CN(c2cccc(O)c2)C1=O (stereo not shown) [Example 294, 4-(3-hydroxyphenyl)-2-methyl-9-phenethyl-1-oxa-4,9-diazaspiro[5.5]undecan-3-one]
- μ and σ1 dual binding: ++

SMILES: CC1OC2(CCN(CCc3ccccc3O)CC2)CN(c2ccccc2)C1=O (stereo not shown) [Example 295, 9-(2-hydroxyphenethyl)-2-methyl-4-phenyl-1-oxa-4,9-diazaspiro[5.5]undecan-3-one]
- Ki: < 0.1 µM

SMILES: CC1OC2(CCN(CCc3ccccc3)CC2)CN(c2ccccc2O)C1=O (stereo not shown) [Example 296, 4-(2-hydroxyphenyl)-2-methyl-9-phenethyl-1-oxa-4,9-diazaspiro[5.5]undecan-3-one]
- μ and σ1 dual binding: ++

SMILES: CC(C)C1OC2(CCN(CCc3ccccc3O)CC2)CN(c2ccccc2F)C1=O (stereo not shown) [Example 297, 4-(2-fluorophenyl)-9-(2-hydroxyphenethyl)-2-isopropyl-1-oxa-4,9-diazaspiro[5.5]undecan-3-one]
- Ki: < 0.1 µM

SMILES: CC1OC2(CCN(CCc3cccc(O)c3)CC2)CN(c2ccccc2F)C1=O (stereo not shown) [Example 298, 4-(2-fluorophenyl)-9-(3-hydroxyphenethyl)-2-methyl-1-oxa-4,9-diazaspiro[5.5]undecan-3-one]
- Ki [1]: < 0.1 µM

SMILES: Oc1ccccc1CCN1CCC2(CC1)CN(Cc1ccccc1)CCO2 [Example 299, 2-(2-(4-benzyl-1-oxa-4,9-diazaspiro[5.5]undecan-9-yl)ethyl)phenol]
- Ki [1]: < 0.1 µM

SMILES: Cl.O=C1COC2(CCN(CCc3ccccc3O)CC2)CN1Cc1ccccn1 [Example 300, 9-(2-hydroxyphenethyl)-4-(pyridin-2-ylmethyl)-1-oxa-4,9-diazaspiro[5.5]undecan-3-one hydrochloride]
- μ and σ1 dual binding: ++

SMILES: O=C1C(CO)OC2(CCN(CCc3ccccc3O)CC2)CN1c1ccccc1F (stereo not shown) [Example 301, 4-(2-fluorophenyl)-2-(hydroxymethyl)-9-(2-hydroxyphenethyl)-1-oxa-4,9-diazaspiro[5.5]undecan-3-one]
- μ and σ1 dual binding [2]: ++

SMILES: O=C1C(CCCO)OC2(CCN(CCc3ccccc3)CC2)CN1c1ccccc1F (stereo not shown) [Example 302, 4-(2-fluorophenyl)-2-(3-hydroxypropyl)-9-phenethyl-1-oxa-4,9-diazaspiro[5.5]undecan-3-one]
- Ki: < 0.5 µM

SMILES: CC1OC2(CCN(CCc3csc(N)n3)CC2)CN(c2ccccc2F)C1=O (stereo not shown) [Example 303, 9-(2-(2-aminothiazol-4-yl)ethyl)-4-(2-fluorophenyl)-2-methyl-1-oxa-4,9-diazaspiro[5.5]undecan-3-one]
- Ki: < 0.5 µM

SMILES: Nc1nc(CCN2CCC3(CC2)CN(Cc2ccc(C(F)(F)F)cn2)C(=O)CO3)cs1 [Example 304, 9-(2-(2-aminothiazol-4-yl)ethyl)-4-((5-(trifluoromethyl)pyridin-2-yl)methyl)-1-oxa-4,9-diazaspiro[5.5]undecan-3-one]
- Ki [1]: < 0.5 µM

SMILES: CC1OC2(CCN(CCn3nccc3N)CC2)CN(c2ccccc2)C1=O (stereo not shown) [Example 305, 9-(2-(5-amino-1H-pyrazol-1-yl)ethyl)-2-methyl-4-phenyl-1-oxa-4,9-diazaspiro[5.5]undecan-3-one hydrochloride]
- Ki [1]: > 0.5 µM

SMILES: CC(C)C1OC2(CCN(CCc3csc(N)n3)CC2)CN(c2ccccc2F)C1=O (stereo not shown) [Example 306, 9-(2-(2-aminothiazol-4-yl)ethyl)-4-(2-fluorophenyl)-2-isopropyl-1-oxa-4,9-diazaspiro[5.5]undecan-3-one dihydrochloride]
- μ and σ1 dual binding: ++

SMILES: Nc1nc(CCN2CCC3(CC2)CN(c2ccccc2)C(=O)C2(CC2)O3)cs1 [Example 307, 8-[2-(2-aminothiazol-4-yl)ethyl]-12-phenyl-4-oxa-8,12-diazadispiro[2.1.5.3]tridecan-13-one dihydrochloride]
- Ki: < 0.5 µM

SMILES: Nc1nc(CCN2CCC3(CC2)CN(Cc2ccc(C(F)(F)F)cn2)C(=O)C2(CC2)O3)cs1 [Example 308, 8-[2-(2-aminothiazol-4-yl)ethyl]-12-{[5-(trifluoromethyl)pyridin-2-yl]methyl}-4-oxa-8,12-diazadispiro[2.1.5.3]tridecan-13-one trihydrochloride]
- μ and σ1 dual binding: ++

SMILES: CC1OC2(CCN(CCc3csc(N)n3)CC2)CN(c2cnccc2C(F)(F)F)C1=O (stereo not shown) [Example 309, 9-(2-(2-aminothiazol-4-yl)ethyl)-2-methyl-4-(4-(trifluoromethyl)pyridin-3-yl)-1-oxa-4,9-diazaspiro[5.5]undecan-3-one]
- Ki [1]: > 0.5 µM

SMILES: O=C1N(CCO)CC2(CCN(CCc3ccccc3)CC2)OC12CC2 [Example 310, 12-(2-hydroxyethyl)-8-phenethyl-4-oxa-8,12-diazadispiro[2.1.5.3]tridecan-13-one hydrochloride]
- Ki [1]: > 0.5 µM

SMILES: O=C1C(CC2CCOCC2)OC2(CCN(CCc3ccccc3)CC2)CN1c1ccccc1F (stereo not shown) [Example 311, 4-(2-fluorophenyl)-9-phenethyl-2-((tetrahydro-2H-pyran-4-yl)methyl)-1-oxa-4,9-diazaspiro[5.5]undecan-3-one hydrochloride]
- Ki: < 0.5 µM

SMILES: CC(C)C1OC2(CCN(CCc3ccccc3)CC2)CN(c2ccccc2F)C1=O (stereo not shown) [Example 312, 4-(2-fluorophenyl)-2-isopropyl-9-phenethyl-1-oxa-4,9-diazaspiro[5.5]undecan-3-one hydrochloride]
- Ki: < 0.1 µM

SMILES: CC(C)C1OC2(CCN(CCc3ccccn3)CC2)CN(c2ccccc2F)C1=O (stereo not shown) [Example 313, 4-(2-fluorophenyl)-2-isopropyl-9-(2-(pyridin-2-yl)ethyl)-1-oxa-4,9-diazaspiro[5.5]undecan-3-one hydrochloride]
- Ki: < 0.5 µM

SMILES: COCCCC1OC2(CCN(CCc3ccccc3)CC2)CN(c2ccccc2F)C1=O (stereo not shown) [Example 314, 4-(2-fluorophenyl)-2-(3-methoxypropyl)-9-phenethyl-1-oxa-4,9-diazaspiro[5.5]undecan-3-one hydrochloride]
- Ki: < 0.5 µM

SMILES: CC1OC2(CCN(CC(=O)N(C)c3ccccc3)CC2)CN(c2ccccc2)C1=O (stereo not shown) [Example 315, N-methyl-2-(2-methyl-3-oxo-4-phenyl-1-oxa-4,9-diazaspiro[5.5]undecan-9-yl)-N-phenylacetamide hydrochloride]
- Ki [1]: > 0.5 µM

SMILES: Oc1cccc(N2CCOC3(CCN(CCc4ccccc4)CC3)C2)c1 [Example 316, 3-(9-phenethyl-1-oxa-4,9-diazaspiro[5.5]undecan-4-yl)phenol]
- Ki [1]: < 0.5 µM

SMILES: c1ccc(CCN2CCC3(CC2)CN(c2ccccc2)CCO3)cc1 [Example 317, 9-phenethyl-4-phenyl-1-oxa-4,9-diazaspiro[5.5]undecane]
- Ki [1]: < 0.5 µM

SMILES: Oc1cccc(N2CCOC3(CCN(Cc4ccccc4)CC3)C2)c1 [Example 318, 3-(9-benzyl-1-oxa-4,9-diazaspiro[5.5]undecan-4-yl)phenol]
- Ki [1]: < 0.5 µM

SMILES: COCC1CN(c2ccccc2)CC2(CCN(CCc3ccccc3)CC2)O1 (stereo not shown) [Example 319, 2-(methoxymethyl)-9-phenethyl-4-phenyl-1-oxa-4,9-diazaspiro[5.5]undecane hydrochloride]
- Ki: < 0.5 µM

SMILES: COc1cccc(CCN2CCC3(CC2)CN(c2ccccc2)CCO3)c1.Cl [Example 320, 9-(3-methoxyphenethyl)-4-phenyl-1-oxa-4,9-diazaspiro[5.5]undecane hydrochloride]
- μ and σ1 dual binding: ++

SMILES: Oc1ccccc1CCN1CCC2(CC1)CN(c1ccccc1)CCO2 [Example 321, 2-(2-(4-phenyl-1-oxa-4,9-diazaspiro[5.5]undecan-9-yl)ethyl)phenol]
- μ and σ1 dual binding [2]: ++

SMILES: Oc1cccc(CCN2CCC3(CC2)CN(c2ccccc2)CCO3)c1 [Example 322, 3-(2-(4-phenyl-1-oxa-4,9-diazaspiro[5.5]undecan-9-yl)ethyl)phenol]
- Ki [1]: < 0.5 µM

SMILES: OCCC1CN(c2ccccc2)CC2(CCN(CCc3ccccc3)CC2)O1 (stereo not shown) [Example 323, 2-(9-phenethyl-4-phenyl-1-oxa-4,9-diazaspiro[5.5]undecan-2-yl)ethanol hydrochloride]
- Ki: < 0.5 µM

SMILES: c1ccc(CCN2CCC3(CC2)CN(Cc2ccccc2)CCO3)cc1 [Example 324, 4-benzyl-9-phenethyl-1-oxa-4,9-diazaspiro[5.5]undecane dihydrochloride]
- Ki [1]: < 0.1 µM

SMILES: c1ccc(CCN2CCC3(CC2)CN(Cc2cscn2)CCO3)cc1 [Example 325, 9-phenethyl-4-(thiazol-4-ylmethyl)-1-oxa-4,9-diazaspiro[5.5]undecane dihydrochloride]
- Ki [1]: < 0.5 µM

SMILES: COc1ccccc1CCN1CCC2(CC1)CN(Cc1ccccn1)CCO2 [Example 326, 9-(2-methoxyphenethyl)-4-(pyridin-2-ylmethyl)-1-oxa-4,9-diazaspiro[5.5]undecane]
- Ki [1]: < 0.5 µM

SMILES: CC1CN(Cc2nccn2C)CC2(CCN(CCc3ccccc3)CC2)O1 (stereo not shown) [Example 327, 2-methyl-4-((1-methyl-1H-imidazol-2-yl)methyl)-9-phenethyl-1-oxa-4,9-diazaspiro[5.5]undecane dihydrochloride]
- Ki [1]: < 0.5 µM
